Results: publication PMC12375005 (Communications Biology, 2025)

How the values were obtained:
TcCCE34 = assay: inhibition of alpha-naphthyl acetate hydrolysis; assay type: biochemical, Tetranychus cinnabarinus; conditions: 3 × 10^−4 mol/L alpha-naphthyl acetate; 10 min preincubation 30 °C; 5% acetone
TcGSTm8 = molecular target: T1, TcGSTm8 (Tetranychus cinnabarinus, UniProt U5YE47); assay: inhibition of CDNB conjugation; assay type: biochemical; conditions: 6 mM GSH; 0.6 mM CDNB; 10 min preincubation 25 °C; 5% acetone
T1 sequence (U5YE47 1-227): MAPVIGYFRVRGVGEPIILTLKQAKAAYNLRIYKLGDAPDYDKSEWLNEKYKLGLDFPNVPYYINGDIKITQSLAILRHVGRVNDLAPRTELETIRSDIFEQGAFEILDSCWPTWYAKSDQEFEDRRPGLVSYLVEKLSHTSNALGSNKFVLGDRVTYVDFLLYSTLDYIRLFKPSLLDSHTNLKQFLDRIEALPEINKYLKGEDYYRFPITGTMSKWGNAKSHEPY

| SMILES | IC50 (TcCCE34) [µM] | IC50 (TcGSTm8) [µM] |
| --- | --- | --- |
| CCOP(=S)(OCC)Oc1nc(Cl)c(Cl)cc1Cl [chlorpyrifos] | 57.2 ± 7.42 | 1180 ± 90 |
| CC1(C)C(C(=O)OC(C#N)c2cccc(Oc3ccccc3)c2)C1(C)C (stereo not drawn) [fenpropathrin] | 42.5 ± 8.44 | 1090 ± 50 |
| COCCOC(=O)C(C#N)(C(=O)c1ccccc1C(F)(F)F)c1ccc(C(C)(C)C)cc1 (stereo not drawn) [cyflumetofen] | 630 ± 39.8 | 1570 ± 110 |
